Results from ChEMBL document CHEMBL3272296, “Quinazolines and 1,4-benzodiazepines. 82.1 5-Pyrimidyl-and 5-pyrazinylbenzodiazepines” (1977).

Columns and labels:
Format in all cases: functional
Mus musculus [1] = assay: CNS activity in po dosed mouse assessed as reduction in muscle relaxant activity by inclined screening method
Mus musculus [2] = assay: CNS activity in po dosed mouse assessed as reduction in fighting behaviour
Mus musculus [3] = assay: Anticonvulsant activity in po dosed mouse assessed as protection against pentylenetetrazole-induced seizures
Mus musculus [4] = assay: Anticonvulsant activity in po dosed mouse assessed as protection against maximal electroshock-induced seizures
Felis catus = assay: CNS activity in po dosed unanesthesized cat assessed as muscle relaxant activity; settings: read-out: MED

| Structure (SMILES) | ED50 (Mus musculus [1]) [mg/kg] | ED50 (Mus musculus [2]) [mg/kg] | ED50 (Mus musculus [3]) [mg/kg] | ED50 (Mus musculus [4]) [mg/kg] | minimal effective dose (Felis catus) [mg/kg] |
| --- | --- | --- | --- | --- | --- |
| O=C1CN=C(c2ccncn2)c2cc(Cl)ccc2N1 | > 400 | > 100 | 340 | > 800 |  |
| O=C1CN=C(c2cnccn2)c2cc(Cl)ccc2N1 | 300 | 50 | 7.4 | > 800 | 10 |
| Cc1cnc(C)c(C2=NCC(=O)Nc3ccc(Br)cc32)n1 | > 400 | 50 | 37 | > 800 | 10 |
| O=C1CN=C(c2ncccn2)c2cc(Cl)ccc2N1 | 500 | 100 | 1.75 | 520 | 2 |
| CN1C(=O)CN=C(c2ncccn2)c2cc(Cl)ccc21 | > 200 |  | 0.75 | 315 | 0.1 |
| O=[N+]([O-])c1ccc2c(c1)C(c1ncccn1)=NCCN2 | > 400 |  | 68 | > 800 |  |
| CN1CCN=C(c2ncccn2)c2cc([N+](=O)[O-])ccc21 | 250 | > 100 | 93 | > 800 | 20 |
| CN1CCN=C(c2ncccn2)c2cc(Cl)ccc21 | 200 | 100 | > 800 | 360 | 10 |
| O=C1CN=C(c2ccccn2)c2cc(Br)ccc2N1 [BROMAZEPAM] | 30 | 10 | 0.8 | 34 | 0.2 |
| CN1C(=O)CN=C(c2ccccc2)c2cc(Cl)ccc21 [DIAZEPAM] | 30 | 10 | 1.4 | 22 | 0.2 |
